In this assay the target is a-glucosidase (Saccharomyces cerevisiae, UniProt P53341). It is filed as biochemical. To be noted: 0.5 U/ml enzyme, 0.6 mM pNaGP, pH 6.8, 37° C.; for Inhibition rate %: compound at 250 μmol/L; for IC50: gradient 500 to 7.8125 μmol/L. Here is the method:
An in vitro a-glucosidase activity assay was used for activity determination:
the compounds were weighed separately, and dissolved in dimethylsulfoxide (DMSO) to prepare 250 μmol/L of a reagent for a subsequent experiment. In short, a-glucosidase solution with a final concentration of 0.5 U/ml was reacted with 250 μmol/L of the compound and 0.6 mM of pNaGP solution in 0.1 mM, pH 6.8 phosphate buffer solution, to determine the inhibitory effect of the compound on an a-glucosidase conversion substrate. […] 250 μmol/L (10 μL) of the compound, enzyme solution (40 μL), and potassium phosphate buffer solution (100 μL) were pre-incubated in a 96-well plate at 37° C. for 10 min. Then, 50 μL of the substrate (pNaGP, 0.6 mM) was added to each micropore, it was incubated at 37° C. for 20 min, the absorbance was measured at 405 nm, and changes in enzyme activity were detected.
The formula for calculating the enzyme inhibitory activity of the compound tested was as follows:
The in vitro a-glucosidase activity assay was used for activity determination:
after the compounds were weighed separately, it was dissolved in DMSO to prepare 1 mmol/L of mother solution, and it was diluted in gradient to 500 μmol/L, 250 μmol/L, 125 μmol/L, 62.5 μmol/L, 31.25 μmol/L, 15.625 μmol/L and 7.8125 μmol/L. The different concentrations of the compounds (10 μL), 0.5 U/ml of enzyme solution (40 μL), and 0.1 mM, pH 6.8 phosphate buffer solution (100 μL) were pre-incubated in the 96-well plate at 37° C. for 10 min. Then, 50 μL of the substrate (pNaGP, 0.6 mM) was added to each micropore, it was incubated at 37° C. for 20 min, the absorbance was measured at 405 nm, and changes in enzyme activity were detected.

SMILES strings stand for the structures.

The values below come from US12448390B1, “Compound with α-glucosidase inhibitory activity and application thereof” (priority 2024, dated 2025).

Sequence of a-glucosidase (P53341 whole entry): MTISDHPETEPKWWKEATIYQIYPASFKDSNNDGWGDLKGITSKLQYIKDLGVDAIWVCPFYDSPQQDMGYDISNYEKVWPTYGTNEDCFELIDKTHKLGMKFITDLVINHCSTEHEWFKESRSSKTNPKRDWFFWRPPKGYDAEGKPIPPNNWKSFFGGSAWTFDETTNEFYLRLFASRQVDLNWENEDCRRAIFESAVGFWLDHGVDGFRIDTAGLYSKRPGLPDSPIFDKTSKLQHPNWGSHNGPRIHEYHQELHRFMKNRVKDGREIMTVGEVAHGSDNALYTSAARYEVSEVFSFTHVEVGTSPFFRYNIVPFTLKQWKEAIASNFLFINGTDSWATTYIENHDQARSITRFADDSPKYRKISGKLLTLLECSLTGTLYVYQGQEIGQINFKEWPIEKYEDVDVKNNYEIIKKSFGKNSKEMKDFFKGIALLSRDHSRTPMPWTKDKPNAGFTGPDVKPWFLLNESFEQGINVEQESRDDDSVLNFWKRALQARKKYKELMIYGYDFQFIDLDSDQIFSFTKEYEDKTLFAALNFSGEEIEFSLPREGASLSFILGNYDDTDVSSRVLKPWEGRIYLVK

For `Cc1ncc(CO)c2cc(C(=O)Nc3ccc(F)cc3)c(=Nc3cccc(C(F)(F)F)c3)oc12` [GFY-1], the Inhibition rate % came out at 23.042%.

The molecule `Cc1ncc(CO)c2cc(C(=O)Nc3ccc(F)cc3)c(=Nc3ccc(C(F)(F)F)cc3)oc12` [GFY-2] displayed an Inhibition rate % of 13.832%.

`COc1cccc(N=c2oc3c(C)ncc(CO)c3cc2C(=O)Nc2ccc(F)cc2)c1` [GFY-4]: the Inhibition rate % was 30.769%.

As for `Cc1ncc(CO)c2cc(C(=O)Nc3ccc(F)cc3)c(=Nc3cc(O)cc(CO)c3)oc12` [GFY-7], the Inhibition rate % is 45.254%.

The molecule `Cc1ncc(CO)c2cc(C(=O)Nc3ccc(F)c(F)c3)c(=Nc3cc(O)cc(CO)c3)oc12` [GFY-13] registered an Inhibition rate % of 13.978%.

In turn, `Cc1ncc(CO)c2cc(C(=O)Nc3ccc(F)c(Cl)c3)c(=Nc3cccc(CO)c3)oc12` [GFY-16] registered an Inhibition rate % of 89.604% and an IC50 of 140 µM.

`Cc1ncc(CO)c2cc(C(=O)Nc3ccc(F)c(Cl)c3)c(=Nc3cc(O)cc(CO)c3)oc12` [GFY-17] yielded an Inhibition rate % of 31.045%.

Regarding `Cc1ncc(CO)c2cc(C(=O)Nc3ccc(F)cc3)c(=Nc3ccc(F)cc3)oc12` [GFY-20], the Inhibition rate % was 95.56% and the IC50 came to 20.1 µM.

`Cc1ncc(CO)c2cc(C(=O)Nc3ccc(F)cc3)c(=Nc3cc(F)cc(F)c3)oc12` [GFY-21] yielded an Inhibition rate % of 99.916% and a half-inhibitory concentration (IC50) of 43.1 µM.

The molecule `Cc1ncc(CO)c2cc(C(=O)Nc3ccc(F)cc3)c(=Nc3ccc(F)c(F)c3)oc12` [GFY-22] had an Inhibition rate % of 86.819% and a concentration for half-maximal inhibition (IC50) of 37 µM.

Turning to `Cc1ncc(CO)c2cc(C(=O)Nc3ccc(F)c(Cl)c3)c(=Nc3ccc(F)cc3)oc12` [GFY-23], the Inhibition rate % is on record as 22.127%.

The molecule `Cc1ncc(CO)c2cc(C(=O)Nc3ccc(F)c(Cl)c3)c(=Nc3cc(F)cc(F)c3)oc12` [GFY-24] came in with an Inhibition rate % of 99.833% and an IC50 of 16.6 µM.

`Cc1ncc(CO)c2cc(C(=O)Nc3ccc(F)c(Cl)c3)c(=Nc3ccc(F)c(F)c3)oc12` [GFY-25] showed an Inhibition rate % of 69.628%.

For the molecule `Cc1ncc(CO)c2cc(C(=O)Nc3ccc(F)c(Cl)c3)c(=Nc3ccc(Cl)cc3)oc12` [GFY-26], the Inhibition rate % was determined as 62.651%.

Consider `Cc1ncc(CO)c2cc(C(=O)Nc3ccc(F)c(Cl)c3)c(=Nc3cc(Br)cc(Br)c3)oc12` [GFY-27], for which the Inhibition rate % is given as 56.656%.

On to `Cc1ncc(CO)c2cc(C(=O)Nc3ccc(F)c(Cl)c3)c(=Nc3ccc(Br)c(Br)c3)oc12` [GFY-28], for which the Inhibition rate % is 64.035%.

Consider `Cc1ncc(CO)c2cc(C(=O)Nc3ccc(F)cc3)c(=Nc3cc(Br)cc(Br)c3)oc12` [GFY-29], for which the Inhibition rate % was 94.686% and the IC50 is 27 µM.
